Assay results reported in patent US20240041042A1, “1-(PYRIDYL)-5-AZINYLPYRAZOLE DERIVATIVES, AND THEIR USE FOR CONTROL OF UNDESIRED PLANT GROWTH” (Bayer Aktiengesellschaft, priority 2020, published 2024).
Where two headings read alike, the source gives them in different places.

What was measured:
Format in all cases: in vivo
[1] = test system: Viola tricolor (VIOTR); assay: Pre-emergence herbicidal action against VIOTR; conditions: 320 g/ha, Viola tricolor
How it was run: (§1)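 Read-out is visual percent damage relative to untreated pots, with 100% meaning dead plants and 0% meaning no difference, assessed roughly three weeks after treatment. Compounds were applied pre-emergence to the covering soil at up to 320 g/ha.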

[2] = test system: Polygonum convolvulus (POLCO); assay: Post-emergence herbicidal action against POLCO; conditions: dosage 320 g/ha
How it was run: (§2)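 Doses of 320 g/ha or lower, suffixes a, b and c marking different dosages, were applied post-emergence at the one-leaf stage in 600 l/ha water with 0.5% additive. Damage was assessed visually after about 3 weeks in the greenhouse.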

[3] = test system: Alopecurus myosuroides (ALOMY); assay: Post-emergence herbicidal action against ALOMY; conditions: 320 g/ha, visual rating about 3 weeks after treatment vs untreated controls (100% = plants have died, 0% = like control plants)
How it was run: as §2

[4] = test system: Amaranthus retroflexus (AMARE); assay: Post-emergence herbicidal action against AMARE
How it was run: as §2

[5] = test system: Triticum aestivum (TRZAS); conditions: crop plant compatibility, 80 g/ha, effect vs untreated controls
How it was run: (§3)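 Visual rating (% effect vs. untreated plants; 100% = plant death) made about 3 weeks after treatment. Plants had been sprayed at one-leaf stage, 2–3 weeks post-sowing, with aqueous WP/EC preparations containing 0.5% additive, 600 l/ha water volume; a, b, c mark dose levels.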

[6] = test system: Oryza sativa (ORYSA); conditions: crop plant compatibility, effect in comparison to untreated controls
How it was run: as §3

[7] = test system: Amaranthus retroflexus (AMARE); assay: Pre-emergence herbicidal action against AMARE; conditions: 320 g/ha, visual scoring after about 3 weeks vs untreated controls
How it was run: as §1

[8] = test system: Triticum aestivum (TRZAS); conditions: pre-emergence, crop plant compatibility, in comparison to untreated controls
How it was run: (§4)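 Scoring: visual, % of untreated control, about 3 weeks after a pre-emergence application to the soil surface. Application used WP or EC formulations diluted in water with 0.5% additive at 600 l/ha; dosage levels are marked by suffixes a, b and c.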

[9] = test system: Oryza sativa (ORYSA); conditions: pre-emergence, crop plant compatibility, in comparison to untreated controls
How it was run: as §4

[10] = test system: Viola tricolor (VIOTR); assay: Post-emergence herbicidal action against VIOTR; conditions: 320 g/ha
How it was run: as §2

[11] = test system: Zea mays (ZEAMX); conditions: crop plant compatibility, effect vs untreated controls
How it was run: as §3

[12] = test system: Verconica persica (VERPE); assay: Pre-emergence herbicidal action against VERPE; conditions: dosage 320 g/ha
How it was run: as §1

[13] = test system: Zea mays (ZEAMX); conditions: pre-emergence, crop plant compatibility, in comparison to untreated controls
How it was run: as §4

[14] = test system: Echinochloa crus-galli (ECHCG); assay: Post-emergence herbicidal action against ECHCG; conditions: dosage 320 g/ha
How it was run: as §2

[15] = test system: Pharbitis purpurea (PHBPU); assay: Pre-emergence herbicidal action against PHBPU; conditions: dosage 320 g/ha
How it was run: as §1

[16] = test system: Polygonum convolvulus (POLCO); assay: Pre-emergence herbicidal action against POLCO
How it was run: as §1

[17] = test system: Verconica persica (VERPE); assay: Post-emergence herbicidal action against VERPE
How it was run: as §2

[18] = test system: Setaria viridis (SETVI); assay: Pre-emergence herbicidal action against SETVI; conditions: dosage 320 g/ha
How it was run: as §1

[19] = test system: Lolium rigidum (LOLRI); assay: Post-emergence herbicidal action against LOLRI; conditions: dosage 320 g/ha
How it was run: as §2

[20] = test system: Lolium rigidum (LOLRI); assay: Pre-emergence herbicidal action against LOLRI; conditions: dosage 320 g/ha
How it was run: as §1

[21] = test system: Matricaria inodora (MATIN); assay: Pre-emergence herbicidal action against MATIN; conditions: dosage 320 g/ha
How it was run: as §1

[22] = test system: Setaria viridis (SETVI); assay: Post-emergence herbicidal action against SETVI
How it was run: as §2

[23] = test system: Pharbitis purpurea (PHBPU); assay: Post-emergence herbicidal action against PHBPU
How it was run: as §2

[24] = test system: Echinochloa crus-galli (ECHCG); assay: Pre-emergence herbicidal action against ECHCG; conditions: dosage 320 g/ha
How it was run: as §1

[25] = test system: Avena fatua (AVEFA); assay: Post-emergence herbicidal action against AVEFA; conditions: 320 g/ha, visual rating about 3 weeks after treatment
How it was run: as §2

[26] = 320 g/ha, visual rating about 3 weeks after treatment

Post-emergence action against TRZAS in % [5] [%] | Post-emergence action against ORYSA in % ([6]; 80 g/ha) [%] | Post-emergence action against ORYSA in % ([6]; 320 g/ha) [%] | Pre-emergence action against TRZAS in % ([8]; 80 g/ha) [%] | Pre-emergence action against ORYSA in % ([9]; 80 g/ha) [%] | Pre-emergence action against ORYSA in % ([9]; 320 g/ha) [%] | SMILES | Post-emergence action against AMARE in % [4, 26] [%] | Pre-emergence action against AMARE in % [7] [%] | Pre-emergence action against VERPE in % [12] [%] | Post-emergence action against ECHCG in % [14] [%] | Pre-emergence action against PHBPU in % [15] [%] | Pre-emergence action against POLCO in % ([16]; dosage 320 g/ha) [%] | Post-emergence action against VERPE in % ([17]; 320 g/ha, VERPE) [%] | Post-emergence action against VERPE in % ([17]; dosage 80 g/ha) [%] | Pre-emergence action against SETVI in % [18] [%] | Post-emergence action against LOLRI in % [19] [%] | Pre-emergence action against LOLRI in % [20] [%] | Pre-emergence action against MATIN in % [21] [%] | Post-emergence action against SETVI in % ([22]; dosage 320 g/ha) [%] | Post-emergence action against PHBPU in % ([23]; dosage 80 g/ha) [%] | further results
0 | 0 | 0 | 0 | 0 | 0 | CCOC(=O)COc1nn(-c2ccncc2)c(-c2ccc(F)nc2)c1Br [III-08] | 80 | 80 |  |  |  |  |  |  |  |  |  |  |  |  | Pre-emergence action against VIOTR in % [1]: 90%; Post-emergence action against POLCO in % [2]: 80%; Post-emergence action against ALOMY in % [3]: 80%; Pre-emergence action against TRZAS in % ([8]; 320 g/ha): 0%; Post-emergence action against VIOTR in % [10]: 80%
 | 0 | 0 | 0 | 0 | 10 | COC(=O)[C@H](C)NC(=O)COc1nn(-c2ccnc(F)c2)c(-c2ccc(F)nc2)c1Br [III-28] | 80 | 80 | 80 |  |  |  |  |  |  |  |  |  |  |  | Post-emergence action against AMARE in % ([4]; 80 g/ha, visual rating about 3 weeks after treatment vs untreated controls (100% = plants have died, 0% = like control plants)): 80%; Post-emergence action against ZEAMX in % ([11]; 80 g/ha): 0%; Post-emergence action against ZEAMX in % ([11]; 320 g/ha): 0%; Pre-emergence action against ZEAMX in % ([13]; 80 g/ha): 0%; Pre-emergence action against ZEAMX in % ([13]; 320 g/ha): 10%
10 | 10 |  | 20 | 0 |  | COCCOC(=O)COc1nn(-c2cccc(C)n2)c(-c2ccc(F)nc2)c1Cl [Example I-279] |  |  | 80 | 80 | 100 | 80 | 90 | 80 | 90 | 80 | 80 | 80 | 80 | 80 | Post-emergence action against SETVI in % ([22]; dosage 80 g/ha): 80%; Post-emergence action against PHBPU in % ([23]; dosage 320 g/ha): 80%
10 | 20 |  | 10 | 20 |  | CCOC(=O)COc1nn(-c2cccc(C)n2)c(-c2ccc(F)nc2)c1Cl [Example I-352] | 80 | 90 | 80 | 80 | 80 | 90 | 80 | 80 | 90 | 80 | 80 | 90 | 80 | 90 | Pre-emergence action against ECHCG in % [24]: 90%; Pre-emergence action against POLCO in % ([16]; dosage 80 g/ha): 80%; Post-emergence action against AVEFA in % [25]: 80%; Post-emergence action against PHBPU in % ([23]; dosage 320 g/ha): 90%
